# Columns and labels:
# Format in all cases: cell-based, Staphylococcus aureus
# Staph aureus 1031 [1] = assay: MIC, microtiter broth dilution (CLSI M7-A7), Assay 2, Table 12 column F, no serum; conditions: Staphylococcus aureus, 1031, Staph aureus 1031, Assay 2, no serum
# Method: (§1) The assays described herein include a panel of bacterial isolates of Staphylococcus aureus. Assay 1 comprises the strains noted in Columns A through E, and Assay 2 comprises the strains noted in Columns F through H. The assays are performed in microtiter trays according to Methods for Dilution Antimicrobial Susceptibility Tests for Bacteria that Grow Aerobically; Approved Standard-7th edition (M7-A7) and interpreted according to the Performance Standards for Antimicrobial Susceptibility Testing; 16th Informational Supplement (M100-S16) published by Clinical Laboratory Standards Institute (CLSI). The antibacterial activity is presented in the form of a minimum inhibitory concentration (MIC) value in μg/ml format. The MIC value represents the lowest concentration of drug measured which prevented macroscopically visible growth under the conditions and specific doses tested. The compounds were initially dissolved in DMSO as 30 mM stocks and diluted accordingly to adjust to a concentration of 10 mg/ml or the compounds were dissolved in DMSO at a concentration of 10 mg/ml. For assessment of activity in the presence of human serum, S. aureus 1146 and S. aureus 1031 were inoculated into Mueller-Hinton Broth with 50% pooled inactivated human serum. In some cases, compounds were tested more than once in a particular assay. Where noted, the MIC value shown in Table 12 represents the geometric mean of the data from multiple runs.
# (§2) It should be understood that the data in columns A-H represents MIC data in μg/ml and the notation “<=” means ‘less than or equal to’.
# Staph aureus 2810 = assay: MIC, microtiter broth dilution (CLSI M7-A7), Assay 2, Table 12 column H, no serum; conditions: Staphylococcus aureus, 2810, Staph aureus 2810, Assay 2, no serum
# Method: as §1, §2
# Staph aureus 1031 [2] = assay: MIC in Mueller-Hinton Broth with 50% pooled inactivated human serum, Assay 2, Table 12 column G; conditions: Staphylococcus aureus, 1031, Staph aureus 1031, Assay 2, 50% human serum
# Method: as §1, §2
Structure (SMILES),MIC (Staph aureus 1031 [1]) [µg/mL],MIC (Staph aureus 2810) [µg/mL],MIC (Staph aureus 1031 [2]) [µg/mL]
"COC(=O)[C@H]1CN(C2CN(c3ccccn3)C2)CC[C@H]1CCC(O)c1ccnc2ccc(OC)cc12 (stereo partly drawn) [Example 124, methyl (3R,4R)-4-[3-hydroxy-3-(6-methoxyquinolin-4-yl)propyl]-1-(1-pyridin-2-ylazetidin-3-yl)piperidine-3-carboxylate]",> 64,> 64,> 64
"COc1ccc2nccc(C(O)CC[C@@H]3CCN(C4CN(c5ccccn5)C4)C[C@@H]3C(=O)O)c2c1 (stereo partly drawn) [Example 125, (3R,4R)-4-[3-hydroxy-3-(6-methoxyquinolin-4-yl)propyl]-1-(1-pyridin-2-ylazetidin-3-yl)piperidine-3-carboxylic acid]",> 64,32,> 64
"COc1ccc2ncc(Cl)c(CCNC3(C(=O)O)CCCN(CC4CCc5nc(C)ncc5C4)CC3)c2c1 (stereo not drawn) [Example 158, 4-{[2-(3-chloro-6-methoxyquinolin-4-yl)ethyl]amino}-1-[(2-methyl-5,6,7,8-tetra hydroquinazolin-6-yl)methyl]azepane-4-carboxylic acid]",32,32,> 64
"COc1ccc2nccc([C@@H](O)CNC3(C(=O)O)CCCN(C4CC(c5ccccc5)C4)CC3)c2n1 (stereo partly drawn) [Example 159, 4-{[(2R)-2-hydroxy-2-(6-methoxy-1,5-naphthyridin-4-yl)ethyl]amino}1-(3-phenylcyclobutyl)azepane-4-carboxylic acid]",4,4,16
"COC(=O)C1(NC[C@H](O)c2ccnc3ccc(OC)nc23)CCCN(C2CC(c3ccccc3)C2)CC1 (stereo partly drawn) [Example 160, methyl 4-((R)-2-hydroxy-2-(6-methoxy-1,5-naphthyridin-4-yl)ethylamino)-1-(3-phenylcyclobutyl)azepane-4-carboxylate]",2,2,4

# Continued, values first:
MIC (Staph aureus 1031 [1]) [µg/mL],MIC (Staph aureus 2810) [µg/mL],MIC (Staph aureus 1031 [2]) [µg/mL],Structure (SMILES)
> 64,> 64,> 64,"COc1ccc2nccc(C(O)CC[C@@H]3CCN(CC4CCc5nc(CC6CC6)ncc5C4)C[C@@H]3C(=O)O)c2c1 (stereo partly drawn) [Example 117, (3R,4R)-1-{[2-(cyclopropylmethyl)-5,6,7,8-tetrahydroquinazolin-6-yl]methyl}-4-[3-hydroxy-3-(6-methoxyquinolin-4-yl)propyl]piperidine-3-carboxylic acid]"
> 64,> 64,> 64,"COc1ccc2nccc(C(O)CC[C@@H]3CCN(CC4CCc5nc(-c6ccccc6)ncc5C4)C[C@@H]3C(=O)O)c2c1 (stereo partly drawn) [Example 118, (3R,4R)-4-[3-hydroxy-3-(6-methoxyquinolin-4-yl)propyl]-1-[(2-phenyl-5,6,7,8-tetrahydroquinazolin-6-yl)methyl]piperidine-3-carboxylic acid]"
> 64,> 64,> 64,"COc1ccc2nccc(C(O)CC[C@@H]3CCN(CC4CCc5nc(-c6cnccn6)ncc5C4)C[C@@H]3C(=O)O)c2c1 (stereo partly drawn) [Example 119, (3R,4R)-4-[3-hydroxy-3-(6-methoxyquinolin-4-yl)propyl]-1-[(2-pyrazin-2-yl-5,6,7,8-tetrahydroquinazolin-6-yl)methyl]piperidine-3-carboxylic acid]"
> 64,> 64,> 64,"COc1ccc2nccc(C(O)CC[C@@H]3CCN(CC4CCc5nc(N6CCCCC6)ncc5C4)C[C@@H]3C(=O)O)c2c1 (stereo partly drawn) [Example 120, (3R,4R)-4-[3-hydroxy-3-(6-methoxyquinolin-4-yl)propyl]-1-[(2-piperidin-1-yl-5,6,7,8-tetrahydroquinazolin-6-yl)methyl]piperidine-3-carboxylic acid]"
